{
  "source": "patent US8551951B2",
  "about": "“Pharmaceutical preparations and methods for inhibiting tumors” (Aenorasis SA Pharmaceuticals and Medical Devices, priority 2000, dated 2013)",
  "key": {"[1]": {"system": "PC-3 cells", "assay": "DNA fragmentation assay (DNA ladder, apoptosis)", "format": "cell-based, human", "experimental": "Cell apoptosis result in DNA fragmentation can be evaluated by the presence of a DNA ladder visualized when DNA is run on a 1.2% agarose gel. DNA ladder assay (apoptosis assay) was performed following exposure of PC-3 to various concentrations of the polypeptides for 72 hours. The polypeptides that were used in this particular experiment are polypeptide 7-21 (SEQ ID NO: 4), polypeptide PCK3145 (SEQ ID NO: 5) and polypeptide 76-94 (SEQ ID NO: 6). […] This effect was especially evident following treatment with PCK3145 (SEQ ID NO: 5), which is illustrated by FIG. 7. Lane 1 of the gel illustrated in FIG. 7 represents a lambda HindIII digest standard.\nApoptosis of PC-3 cells, following a 72 hours exposure to PCK3145 at 500 μg/ml concentration, was evaluated in supplemented media by DNA fragmentation assay. Doxorubicin was used as a reference positive control. Untreated cells and PCK3145-treated cells were harvested and the DNA was isolated. Isolated DNA was run on a 1.2% agarose gel containing Ethidium Bromide (EtBr). […] Lane 1 of the gel illustrated in FIG. 25 represents the DNA marker (100 base pair DNA ladder). Lane 2 of the gel illustrated in FIG. 25 represents a control of untreated PC-3 cells."}, "[2]": {"system": "Mat Ly Lu (MLL) tumor", "assay": "Study MLL-1, Mat LyLu tumor implanted in nude mice", "format": "in vivo", "conditions": "Doxorubicin 5 mg/kg i.v. single bolus on day 3; p=0.006", "experimental": "(§1) Studies MLL-1 and MLL-2 were performed as follows; on day 0, male Copenhagen rats were injected subcutaneously with 5×10^5 Mat LyLu cells per rat. These cells were derived from cultures of Mat LyLu cell line grown in RPMI media containing 10% (v/v) of fetal calf serum in logarithmic phase of growth. Cells were harvested from the culture flasks by trypsinization, were centrifuged at 1200 rotation per minute (rpm) and washed three timed with Hanks balanced salt solution (HBSS). Following washing, cells were counted and adjusted to a concentration of 5×10^6 cells/ml in HBSS. A 0.1 ml volume of tumor cell inoculum containing 5×10^5 cells was administered subcutaneously into the flank region of each rat. Three days after tumor cell implantation (i.e., inoculation), animals were treated daily by a subcutaneous injection of the desired polypeptide until day 13.\nExperiments illustrated in FIG. 12 show the anti-tumor efficacy validation of rHuPSP94 against Mat LyLu (MLL) tumor implanted in nude mice (Protocol based on S. Garde et al.; The Prostate, 22: 225-233, 1993).\nFor study MLL-1 (FIG. 12), tumor-implanted nude mice were separated in different groups, each receiving various amount of rHuPSP94 or control reagents. The different groups used in these experiments are illustrated below. Each group contained 8 mice."}, "[3]": {"system": "Mat Ly Lu (MLL) tumor", "assay": "Study MLL-2, Mat Ly Lu tumor implanted in SCID mice", "format": "in vivo", "conditions": "Doxorubicin 5 mg/kg i.v. single bolus on day 3; p=0.002", "experimental": "as §1\nExperiments illustrated in study MLL-2 show the anti-tumor efficacy validation of rHuPSP94 against Mat Ly Lu (MLL) tumor implanted in severe combined immunodeficiency (SCID) mice (Protocol based on S. Garde et al.; The Prostate, 22: 225-233, 1993).\nFor study MLL-2 (FIG. 13), tumor-implanted Scid mice were separated in different groups each receiving various amounts of rHuPSP94 or control reagents. The different groups used in these experiments are illustrated below. Each group contained 8 mice."}, "[4]": {"system": "Dunning Mat Ly Lu tumors", "assay": "Studies MLL-5 and MLL-6, Mat Ly Lu tumor implanted in Copenhagen rats", "format": "in vivo", "conditions": "Doxorubicin 5000 μg/kg single bolus i.v. on day 3 p.t.i", "experimental": "Anti-tumor efficacy evaluation of PCK3145 against Mat Ly Lu (MLL) tumor implanted in Copenhagen rats was performed. (Protocol based on S. Garde et al.; The Prostate, 22: 225-233, 1993). Mat LyLu tumor cells were harvested in mid-log phase from the culture flasks by trypsinization, were centrifuged at 1200 rotation per minute (rpm) and washed three timed with Hanks balanced salt solution (HBSS). Following washing, cells were counted and adjusted to a concentration of 5×10^6 cells/ml in HBSS. A 0.1 ml volume of tumor cell inoculum containing 5×10^5 cells was administered subcutaneously into the flank region of each rat. Treatment started at day 3 post-tumor implantation (p.t.i) by local subcutaneous injection (i.e., in the shaved back area just below tumor implantation site) of various PCK3145 concentrations. This treatment was continued daily for 16 days. Experiments were terminated 24 hours after the last treatment. Tumor measurements were taken at days 7, 9, 11, 14, 16 and 18. Tumor volumes are calculated according to formula (a×b^2×0.5), where a—is the length of the long diameter, b—width of the perpendicular small diameter. At day 19 tumors of individual rats were excised and weighed.\nStudy No: MLL-5 illustrates the efficacy of PCK3145 (SEQ ID NO: 5) compared with polypeptide 7-21 (SEQ ID NO: 4) and polypeptide 76-94 (SEQ ID NO: 6) in tumor growth retardation in Copenhagen rats, which have received Mat Ly Lu implants. Mice were separated in different groups, each receiving various amount of PCK3145 (SEQ ID NO: 5) or control reagents. PCK3145 was injected through the subcutaneous route. The different groups used in these experiments are illustrated in table 8 below. Each group contained 8 mice.\nStudy No: MLL-6 illustrates the efficacy of PCK3145 (SEQ ID NO: 5) in tumor growth retardation in Copenhagen rats, which have received Mat Ly Lu implants. Mice were separated in different group each receiving various amounts of PCK3145 (SEQ ID NO: 5) or control reagents. PCK3145 was injected through the subcutaneous route. The different groups used in these experiments are illustrated in table 9 below. Each group contained 8 mice. Doxorubicin was administered as single bolus via intra-venous injection on day 3 p.t.i."}, "[5]": {"system": "human PC-3 tumor", "assay": "Studies PC3-6 and PC3-12, human PC-3 prostate cancer nude mouse xenograft model", "format": "in vivo, nude mice", "conditions": "Doxorubicin 10000 μg/kg single bolus i.v. on days 3 and 11 p.t.i", "from_the_text": "Studies PC3-6 and PC3-12 (FIGS. 26-27) are consecutive group experiments designed to characterize the in vivo activity of PCK3145 in the human PC-3 prostate cancer nude mouse xenograft model and to explore relationships between dose, route and schedule of administration and the efficacy parameters of tumor growth (volume).\nPC-3 cells harvested in mid-log phase were inoculated at 5×10^6 cells per mice via the subcutaneous route in the mice's back area. Tumors grown from this inoculum were excised at approximately day 32 to 35 post-tumor implantation (p.t.i) when tumor volume reached 200-300 mm^3 (i.e., cu mm). The necrotic tissue was removed and the viable tumor mass cut into small pieces (approximately 1 to 3 mm^3) were implanted SC in the flank region at two opposite sites of the mouse. Treatment with various concentrations of PCK3145 was initiated at day 3 post-tumor implantation (p.t.i) and was continued daily for 21 days. Subcutaneous injections were done below tumor growth sites. Intra-peritoneal injections were performed in the abdominal region. Intra-venous injections were performed via the lateral tail vein. The experiment was terminated 24 hours after the last treatment. Tumor measurements were taken at Days 11, 14, 16, 18, 20, 22 and 24 post-tumor implantation (p.t.i). Tumor volumes were calculated according to formula (a×b^2×0.5), where a—is the length of the long diameter, and b—is the width of the perpendicular small diameter.\nStudy No: PC3-6 illustrates the efficacy of PCK3145, injected subcutaneously, in tumor growth retardation in Nude mice, which have received PC-3 implants. Mice were separated in different group each receiving various amounts of PCK3145 (SEQ ID NO: 5) or control reagents. The different groups used in these experiments are illustrated in table 6 below. Each group contained 10 mice. Doxorubicin was administered as single bolus intra-venous injection on days 3 and 11 post-tumor implantation (p.t.i).\nStudy No: PC3-12 illustrates the efficacy of PCK3145 in tumor growth retardation in Nude mice, which have received PC-3 implants. Mice were separated in different group each receiving various amounts of PCK3145 (SEQ ID NO: 5) or control reagents. PCK3145 was injected either through intra-venous or intra-peritoneal route. The different groups used in these experiments are illustrated in table 7 below. Each group contained 9 mice."}},
  "data": [
    {"smiles": "COc1cccc2c1C(=O)c1c(O)c3c(c(O)c1C2=O)C[C@@](O)(C(=O)CO)C[C@@H]3O[C@H]1C[C@H](N)[C@H](O)[C@H](C)O1", "note": "[Doxorubicin, reference compound]", "values": [
      {"measurement": "DNA laddering effect (FIG. 25 lane 3)", "setting": "[1]; 2 μg/ml", "value": "DNA laddering effect"},
      {"measurement": "DNA laddering effect (FIG. 7 lane 2)", "setting": "[1]; doxorubicin-treated cells", "value": "DNA laddering effect"},
      {"measurement": "tumor weight reduction", "setting": "[2]", "value": 48, "unit": "%"},
      {"measurement": "tumor weight reduction", "setting": "[3]", "value": 82, "unit": "%"},
      {"measurement": "reduction in tumor volumes, study MLL-6", "setting": "[4]", "value": "over 80%"},
      {"measurement": "tumor growth (volume), study PC3-6", "setting": "[5]", "value": "highly significant anti-tumor therapeutic effect"}
    ]}
  ]
}
